Measured values published in ChEMBL document CHEMBL4007458, “1-ethyl-3-(6-methylphenanthridine-8-il) urea modulates TLR3/9 activation and induces selective pro-inflammatory cytokine expression in vitro” (Bioorg Med Chem Lett, 2017).
Blank lines part the entries; values can stand above or below the molecule they belong to. The source made the active and inactive calls. No cut-off for these calls is given here.

Key:
[1] = test system: PBMC; assay: Immunomodulatory activity in human PBMC assessed as induction of IL-6 secretion at 16 uM after 24 hrs by ELISA; assay type: functional, cell-based
[2] = test system: PBMC; assay: Immunomodulatory activity in human PBMC assessed as induction of IL-6 secretion at 5 uM after 24 hrs by ELISA; assay type: functional, cell-based
[3] = molecular target: Toll-like receptor 3 (Homo sapiens) (UniProt O15455); assay: Inhibition of TLR3 in human PBMC assessed as reduction in poly(I:C)-stimulated IL-6 expression at 1 uM by ELISA relative to control
[4] = molecular target: T1, Toll-like receptor 9 (Homo sapiens) (UniProt Q9NR96); assay: Inhibition of TLR9 in human PBMC assessed as reduction in ODN2006-stimulated IL-8 expression at 1 to 10 uM by ELISA
T1 sequence (whole entry): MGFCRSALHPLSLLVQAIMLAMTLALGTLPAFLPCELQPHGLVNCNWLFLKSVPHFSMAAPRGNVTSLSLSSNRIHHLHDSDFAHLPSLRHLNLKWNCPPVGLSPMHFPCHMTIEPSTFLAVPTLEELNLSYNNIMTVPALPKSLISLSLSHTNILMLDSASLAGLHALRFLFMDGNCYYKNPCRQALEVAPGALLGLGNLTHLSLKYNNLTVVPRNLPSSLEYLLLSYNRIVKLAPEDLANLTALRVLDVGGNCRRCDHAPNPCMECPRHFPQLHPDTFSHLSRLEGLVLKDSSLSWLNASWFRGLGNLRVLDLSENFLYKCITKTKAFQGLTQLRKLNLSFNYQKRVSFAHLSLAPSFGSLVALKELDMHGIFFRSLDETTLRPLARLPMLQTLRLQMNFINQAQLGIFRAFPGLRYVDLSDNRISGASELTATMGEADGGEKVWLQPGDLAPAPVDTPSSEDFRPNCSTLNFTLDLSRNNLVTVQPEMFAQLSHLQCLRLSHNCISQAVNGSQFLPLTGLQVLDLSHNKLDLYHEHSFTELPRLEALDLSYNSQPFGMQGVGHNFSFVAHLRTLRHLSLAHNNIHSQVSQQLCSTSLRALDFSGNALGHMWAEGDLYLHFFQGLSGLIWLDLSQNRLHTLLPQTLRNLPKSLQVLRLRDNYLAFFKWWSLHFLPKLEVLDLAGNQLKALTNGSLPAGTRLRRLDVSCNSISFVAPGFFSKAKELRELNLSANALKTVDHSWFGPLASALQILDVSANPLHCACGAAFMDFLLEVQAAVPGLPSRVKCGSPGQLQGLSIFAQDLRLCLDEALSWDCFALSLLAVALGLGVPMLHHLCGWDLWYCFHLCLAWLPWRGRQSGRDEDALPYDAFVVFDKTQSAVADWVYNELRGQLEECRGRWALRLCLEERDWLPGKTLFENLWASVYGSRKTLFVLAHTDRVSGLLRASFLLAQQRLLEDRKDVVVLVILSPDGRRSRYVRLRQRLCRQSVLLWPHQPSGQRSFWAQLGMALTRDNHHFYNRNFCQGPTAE

[5] = test system: PBMC; assay: Immunomodulatory activity in human PBMC assessed as induction of TNFalpha secretion at 10 uM after 24 hrs by ELISA; assay type: functional, cell-based
[6] = test system: PBMC; assay: Immunomodulatory activity in human PBMC assessed as induction of INFalpha secretion at 10 uM after 24 hrs by ELISA; assay type: functional, cell-based
[7] = test system: THP-1; assay: Cytotoxicity against human THP1 cells assessed as reduction in cell viability up to 10 uM after 24 hrs by MTT assay; assay type: cell-based; details: thp-1, 24 h
[8] = test system: HEK293; assay: Cytotoxicity against HEK293 cells assessed as reduction in cell viability up to 10 uM after 24 hrs by MTT assay; assay type: cell-based; details: human, hek293, 24 h
[9] = Binding affinity to synthetic ODN2006 assessed as ratio of fluorescence intensity of compound-ODN complex to fluorescence intensity of compound at 0.01 mol/dm3 at pH 5.7 by fluorescence spectroscopic method
[10] = Binding affinity to synthetic ODN2216 assessed as ratio of fluorescence intensity of compound-ODN complex to fluorescence intensity of compound at 0.01 mol/dm3 at pH 5.7 by fluorescence spectroscopic method
[11] = Binding affinity to synthetic ODN2006 at 0.01 mol/dm3 at pH 5.7 by fluorescence spectroscopic method
[12] = Binding affinity to synthetic ODN2216 assessed as negative ICD band around 240 to 340 nm at 3 x 10^5 10^-6mol/dm3 at pH 5.7 by CD spectroscopic method
[13] = Binding affinity to synthetic ODN2006 assessed as ICD band around 300 nm at 3 x 10^5 10^-6mol/dm3 at pH 5.7 by CD spectroscopic method
[14] = Binding affinity to synthetic ODN2216 assessed as negative ICD band around 240 to 340 nm at 3 x 10^5 10^-6mol/dm3 at pH 7 by CD spectroscopic method
[15] = test system: PBMC; assay: Immunomodulatory activity in human PBMC assessed as induction of IL-8 secretion after 24 hrs by ELISA; assay type: functional, cell-based
[16] = Binding affinity to synthetic ODN2006 at 0.01 mol/dm3 at pH 7 by fluorescence spectroscopic method
[17] = test system: PBMC; assay: Cytotoxicity against human PBMC assessed as reduction in cell viability up to 10 uM after 24 hrs by MTT assay; assay type: cell-based
[18] = Binding affinity to synthetic ODN2006 assessed as ratio of fluorescence intensity of compound-ODN complex to fluorescence intensity of compound at 0.01 mol/dm3 at pH 7 by fluorescence spectroscopic method
[19] = molecular target: T1, Toll-like receptor 9 (Homo sapiens); assay: Inhibition of human TLR9 activation expressed in HEK293 cells assessed as reduction in ODN2006-induced NF-kB activation up to 5 uM after 18 hrs by luciferase reporter gene assay; assay type: cell-based
[20] = molecular target: Toll-like receptor 3 (Homo sapiens) (UniProt O15455); assay: Inhibition of TLR3 in human PBMC assessed as reduction in poly(I:C)-stimulated IL-6 expression at 1 to 10 uM by ELISA relative to control
[21] = molecular target: T1, Toll-like receptor 9 (Homo sapiens); assay: Inhibition of TLR9 in PMA-induc ed human THP1 cells assessed as reduction in ODN2216-induced TNFalpha by ELISA
[22] = molecular target: T2, Toll-like receptor 8 (Homo sapiens) (UniProt Q9NR97); assay: Activation of human TLR8 expressed in HEK293 cells assessed as induction of NF-kB at 0.1 to 5 uM after 18 hrs by luciferase reporter gene assay; assay type: cell-based
T2 sequence (whole entry): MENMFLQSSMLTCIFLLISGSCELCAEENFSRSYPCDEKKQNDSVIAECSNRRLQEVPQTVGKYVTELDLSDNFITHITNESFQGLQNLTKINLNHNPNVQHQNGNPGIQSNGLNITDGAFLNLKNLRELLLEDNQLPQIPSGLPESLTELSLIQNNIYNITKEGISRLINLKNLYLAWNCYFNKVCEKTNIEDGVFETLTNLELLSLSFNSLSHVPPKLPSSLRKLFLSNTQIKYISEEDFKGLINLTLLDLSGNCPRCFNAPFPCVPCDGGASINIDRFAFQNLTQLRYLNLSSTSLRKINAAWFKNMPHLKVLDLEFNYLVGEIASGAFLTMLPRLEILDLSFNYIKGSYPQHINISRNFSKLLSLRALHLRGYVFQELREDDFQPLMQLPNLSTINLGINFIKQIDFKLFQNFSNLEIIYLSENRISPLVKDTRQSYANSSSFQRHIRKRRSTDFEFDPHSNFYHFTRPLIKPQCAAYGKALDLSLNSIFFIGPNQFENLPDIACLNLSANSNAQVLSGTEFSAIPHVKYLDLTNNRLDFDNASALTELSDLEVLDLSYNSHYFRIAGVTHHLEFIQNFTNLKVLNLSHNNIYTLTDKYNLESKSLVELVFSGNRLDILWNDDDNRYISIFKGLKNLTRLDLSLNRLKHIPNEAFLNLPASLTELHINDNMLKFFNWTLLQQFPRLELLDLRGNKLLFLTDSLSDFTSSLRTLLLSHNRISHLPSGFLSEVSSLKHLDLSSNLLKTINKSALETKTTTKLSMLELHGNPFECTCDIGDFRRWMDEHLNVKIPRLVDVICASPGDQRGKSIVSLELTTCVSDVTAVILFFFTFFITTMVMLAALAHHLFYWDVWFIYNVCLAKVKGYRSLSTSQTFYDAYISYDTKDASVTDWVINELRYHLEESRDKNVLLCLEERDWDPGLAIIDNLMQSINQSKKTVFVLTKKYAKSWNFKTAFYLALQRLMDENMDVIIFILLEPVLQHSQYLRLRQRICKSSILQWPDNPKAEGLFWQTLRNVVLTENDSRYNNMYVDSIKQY

[23] = molecular target: Toll-like receptor 3 (Homo sapiens) (UniProt O15455); assay: Inhibition of human TLR3 expressed in HEK293 cells assessed as reduction in poly(I:C)-induced NF-kB activation up to 5 uM after 18 hrs by luciferase reporter gene assay; assay type: cell-based
[24] = test system: PBMC; assay: Immunomodulatory activity in human PBMC assessed as induction of IL-6 secretion at 10 uM after 24 hrs by ELISA; assay type: functional, cell-based
[25] = Binding affinity to synthetic ODN2006 assessed as ICD band around 301 nm at 3 x 10^5 10^-6mol/dm3 at pH 7 by CD spectroscopic method
[26] = Binding affinity to synthetic ODN2216 at 0.01 mol/dm3 at pH 5.7 by fluorescence spectroscopic method
[27] = molecular target: T3, Toll-like receptor 7 (Homo sapiens) (UniProt Q9NYK1); assay: Activation of human TLR7 expressed in HEK293 cells assessed as induction of NF-kB at 0.1 to 5 uM after 18 hrs by luciferase reporter gene assay; assay type: cell-based
T3 sequence (whole entry): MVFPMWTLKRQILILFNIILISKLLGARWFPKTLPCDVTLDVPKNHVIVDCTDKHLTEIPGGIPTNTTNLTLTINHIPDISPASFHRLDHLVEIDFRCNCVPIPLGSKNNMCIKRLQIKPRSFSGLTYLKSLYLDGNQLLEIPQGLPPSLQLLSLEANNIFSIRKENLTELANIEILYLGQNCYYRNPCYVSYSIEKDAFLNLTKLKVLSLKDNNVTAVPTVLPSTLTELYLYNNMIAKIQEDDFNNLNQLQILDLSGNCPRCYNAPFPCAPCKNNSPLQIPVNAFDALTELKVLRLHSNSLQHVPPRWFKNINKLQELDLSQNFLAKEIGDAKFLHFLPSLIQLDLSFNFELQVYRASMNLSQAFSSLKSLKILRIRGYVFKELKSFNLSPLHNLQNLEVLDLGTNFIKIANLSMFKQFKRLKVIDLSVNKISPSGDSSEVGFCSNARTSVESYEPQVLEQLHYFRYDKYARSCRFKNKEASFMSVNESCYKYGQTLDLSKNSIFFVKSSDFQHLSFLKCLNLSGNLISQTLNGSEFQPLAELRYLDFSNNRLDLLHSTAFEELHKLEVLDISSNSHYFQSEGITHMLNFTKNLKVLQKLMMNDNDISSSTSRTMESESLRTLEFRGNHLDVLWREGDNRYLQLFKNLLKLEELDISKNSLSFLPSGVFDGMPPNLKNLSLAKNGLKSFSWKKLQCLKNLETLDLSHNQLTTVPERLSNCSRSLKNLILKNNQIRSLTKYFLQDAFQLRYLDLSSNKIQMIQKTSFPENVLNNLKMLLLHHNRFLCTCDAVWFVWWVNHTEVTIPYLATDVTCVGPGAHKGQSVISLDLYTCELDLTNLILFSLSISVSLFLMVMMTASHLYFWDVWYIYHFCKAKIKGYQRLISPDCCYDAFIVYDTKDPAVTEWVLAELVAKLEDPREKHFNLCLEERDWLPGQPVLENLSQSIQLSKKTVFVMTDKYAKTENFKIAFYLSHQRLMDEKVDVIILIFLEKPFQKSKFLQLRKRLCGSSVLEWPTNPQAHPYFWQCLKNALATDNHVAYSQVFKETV

[28] = test system: PBMC; assay: Immunomodulatory activity in human PBMC assessed as induction of IL-1beta secretion at 10 uM after 24 hrs by ELISA; assay type: functional, cell-based
[29] = Solubility of the compound in water; assay type: physicochemical; details: buffer
[30] = molecular target: T1, Toll-like receptor 9 (Homo sapiens); assay: Inhibition of TLR9 in human PBMC assessed as reduction in ODN2216-stimulated IFNalpha expression at 1 to 10 uM by ELISA
[31] = molecular target: T3, Toll-like receptor 7 (Homo sapiens); assay: Activation of human TLR7 expressed in HEK293 cell assessed as induction of NF-kB after 18 hrs by luciferase reporter gene assay; assay type: cell-based
[32] = molecular target: T2, Toll-like receptor 8 (Homo sapiens); assay: Activation of human TLR8 expressed in HEK293 cells assessed as induction of NF-kB after 18 hrs by luciferase reporter gene assay; assay type: cell-based

Sequence of Toll-like receptor 3 (Homo sapiens) (O15455 whole entry): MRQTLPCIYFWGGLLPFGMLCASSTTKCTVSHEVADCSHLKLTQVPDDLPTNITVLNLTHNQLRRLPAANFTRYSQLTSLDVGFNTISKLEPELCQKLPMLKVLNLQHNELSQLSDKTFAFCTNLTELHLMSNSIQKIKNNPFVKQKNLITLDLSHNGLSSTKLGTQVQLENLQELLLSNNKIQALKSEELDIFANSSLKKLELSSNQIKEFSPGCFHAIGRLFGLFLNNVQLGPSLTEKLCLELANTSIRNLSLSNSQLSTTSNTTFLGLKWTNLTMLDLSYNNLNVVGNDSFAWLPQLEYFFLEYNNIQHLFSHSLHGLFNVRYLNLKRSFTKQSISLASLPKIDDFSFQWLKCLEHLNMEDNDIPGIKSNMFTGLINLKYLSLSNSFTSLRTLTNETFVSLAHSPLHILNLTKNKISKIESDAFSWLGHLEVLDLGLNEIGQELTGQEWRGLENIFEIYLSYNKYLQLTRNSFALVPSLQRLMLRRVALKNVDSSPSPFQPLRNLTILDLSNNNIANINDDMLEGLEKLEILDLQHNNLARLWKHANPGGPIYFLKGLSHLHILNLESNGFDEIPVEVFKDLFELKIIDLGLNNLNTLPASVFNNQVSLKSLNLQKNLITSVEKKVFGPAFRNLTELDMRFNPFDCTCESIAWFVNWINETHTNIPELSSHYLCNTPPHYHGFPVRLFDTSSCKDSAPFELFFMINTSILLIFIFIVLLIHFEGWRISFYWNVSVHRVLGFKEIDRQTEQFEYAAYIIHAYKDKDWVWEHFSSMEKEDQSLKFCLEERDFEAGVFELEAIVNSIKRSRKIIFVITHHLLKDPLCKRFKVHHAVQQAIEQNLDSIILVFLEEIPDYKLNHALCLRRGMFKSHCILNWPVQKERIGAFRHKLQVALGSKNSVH

SMILES: CCOCc1nc2c(N)nc3ccccc3c2n1CC(C)(C)O
- Activity [1]: Active

SMILES: CC(C)Cn1cnc2c(N)nc3ccccc3c21
- Activity [2]: Active

- inhibition [3]: 50%
- inhibition [4]: inactive
- Ratio [9]: 0.2
- Ratio [10]: 0.73
- log Ks [11]: 4.5
- Activity [12]: Active
- Activity [13]: inactive
- Activity [14]: Active
- log Ks [16]: 5.4
- Ratio [18]: 0.6
- inhibition [19]: Active
- inhibition [20]: Active
- inhibition [21]: Dose-dependent effect
- Activity [22]: inactive
- inhibition [23]: Active
- Activity [25]: Active
- log Ks [26]: 4.04
- Activity [27]: inactive
- solubility [29]: Insoluble
- inhibition [30]: Active
SMILES: CCNC(=O)Nc1ccc2c(c1)c(C)nc1ccccc12
- Activity [5]: Active
- Activity [6]: inactive
- Activity [7]: Non-Toxic
- Activity [8]: Non-Toxic
- Activity [15]: Dose-dependent effect
- Activity [17]: Non-Toxic
- Activity [24]: Active
- Activity [28]: inactive

- Activity [31]: Active
- Activity [32]: Active
SMILES: CCOCc1nc2c(N)nc3ccccc3c2[nH]1
